From patent US12686664B2, “SOCE inhibitors and therapeutic uses thereof” (Institut National de la Santé et de la Recherche Médicale …, priority 2020, dated 2026)
pIC50: −log10 of the molar value. Like-named read-outs stand apart in the source and are kept apart here.

What was measured:
Type in all cases: cell-based
PANC-1 cells [1] = experiment: PANC-1 cell proliferation (Cell Titer kit); conditions: 5 and 20 μM, 24 hours, to a greater extent than GSK-7975A and SKF-93365
Procedure: (§1) Analysis of Cell Proliferation. For PANC-1 cell proliferation and cell cytotoxicity measurements, […] were seeded in 96 well-plates in 100 μL of DMEM medium. Cells were incubated for 24 hours at 37° C. with 3 different SOCE inhibitors (GSK-7975-A, SKF-93365 and 6αa) at 2 different concentrations (5 and 20 μM) compared to DMSO and untreated cells. Cell proliferation was evaluated using the Cell Titer kit proliferation assay (Promega). Cytotoxicity was evaluated using the Cell Tox green cytotoxicity assay (Promega). All the kits were used following manufacturer recommendations and using a plate reader.

JOK cells [2] = experiment: JOK cell cycle analysis (PI staining, flow cytometry)
Procedure: Cell Cycle Analysis. JOK cells were incubated with or without test compounds (GSK-7975-A, SKF-93365 and 6αa) for 48 hours and then washed with cold PBS and fixed with 70% ethanol for 30 minutes at room temperature. Cell cycle was analyzed using propidium iodide (PI). Cell-cycle distribution was determined by PI-staining using flow cytometry and analyzed by Kaluza 1.3.

JOK cells [3] = experiment: Migration of JOK cells through HUVEC in transwells; conditions: 5 or 20 μM
Procedure: Migration Protocol. Migration chambers (transwells) (Transwell 5.0 m polycarbonate membrane Costar) were coated overnight (37° C., 5% CO2) with 100 μL of fibronectine solution containing BSA (1 mg/ml) and LHC Basal Medium. Primary HUmbilical Vein Endothelial Cells (HUVEC) were seeded in each transwell (100 000/well) and cultured for 24 hours (37° C., 5% CO2). To evaluate B cell migration, JOK cells were added (300 000/well) to each transwell upper chamber containing RPMI 1640 medium (BioWest) containing 0.5% BSA and SDF1 (200 ng/ml) was added in the bottom chamber. Cells were cultures in the presence or absence of a test compound (GSK-7975-A, SKF-93365 and 6αa) or solvent. After 24 hours (37° C., 5% CO2), migrated cells were collected in the bottom chambers and counted by flow cytometry. The percentages of migration were calculated for each experimental collection.

PANC-1 cells [4] = experiment: PANC-1 cytotoxicity (Cell Tox green assay); conditions: 5 and 20 μM, 24 hours
Procedure: as §1

JOK cells [5] = experiment: JOK cell proliferation assay
Procedure: Cell Proliferation Assays. Cultured JOK cells were seeded in 96-well culture plates with or without inhibitors. After 48 hours, cell proliferation was assessed using WST-8 assay (Sigma Aldrich). The absorbance was read at 450 nm on a plate reader.

SOCE in JOK B cells = experiment: Intracellular calcium levels / SOCE in JOK B cells (Fura-2AM, FlexStation 3)
Procedure: Intracellular calcium levels were monitored at 37° C. using the FlexStation 3™ (Molecular Devices, Berkshire, UK), a fluorescence plate reader measuring time-resolved intracellular Ca^2+ concentration in a 96-well format with cells loaded with the dual-wavelength fluorescent calcium-sensitive dye Fura-2AM.
Intracellular Ca^2+ stores were depleted with 2 μM Thapsigargin (an inhibitor of ER SERCA pumps) under Ca^2+-free conditions to determine the magnitude of intracellular Ca^2+ release. Next, the cells were returned to Ca^2+-containing Hepes-buffered solution to measure SOCE. The magnitude of SOCE was estimated as the maximal values of normalized fluorescence ratio following Ca^2+ re-addition.

[6] = test system: store-operated Ca^2+ entry in PLP-B lymphocytes; experiment: Store-operated Ca2+ entry after thapsigargin depletion of ER Ca2+ stores in PLP-B lymphocytes; conditions: for inhibition at 0.1 µM / inhibition at 1 µM / inhibition at 10 µM / inhibition at 50 µM / inhibition at 100 µM: PLP-B lymphocytes, % of inhibition (−) or activation
Procedure: (§2) The effects of the molecules developed were tested on PLP-B lymphocytes. Store-operated Ca^2+ entry was induced by depletion of Endoplasmic Reticulum Ca^2+ stores (ER Ca^2+ stores) with thapsigargin (Tg) in a Ca^2+-free medium and measured following the addition of 1.8 mM of CaCl2) in the extracellular medium. The results are compared to the results obtained for known SOCE inhibitors SKF-96365, GSK-7975A, Synta 66.

[7] = test system: store-operated Ca^2+ entry in HEK 651 HS1; experiment: Store-operated Ca2+ entry in HEK 651 HS1 cell line; conditions: for Effect on amplitude of SOCE peak: % of inhibition (−) or activation
Procedure: as §2
Then, effects of the molecule that gave the best results in this test (i.e., molecule 6αa) were assessed in two cancer cell lines, namely: HEK 293 and HEK 651 HS1 tumor cell lines.

PANC-1 cells [8] = experiment: PANC-1 cell apoptosis (AnnexinV-FiTC/PI, flow cytometry); conditions: even at a concentration of 5 μM
Procedure: Analysis of Cell Apoptosis. For PANC-1 cell apoptosis measurements, 5×10^6 cells were seeded in 12 well-plates. Cells were incubated for 24 hours with a test compound (GSK-7975-A, SKF-93365 and 6αa) at two different concentrations (5 and 20 μM) compared to DMSO and untreated cells at 37° C. After washing, cells were taken off plates using an enzyme-free solution. Cells were centrifuged for 5 minutes at 1500 rpm and suspended in […] of PBS containing 1 μL of AnnexinV-FiTC and 1 μL of propidium iodide (PI) for 15 minutes at room temperature in the dark. Evaluation of Annexin and PI staining was performed using a flow cytometer (Navios, Beckman Counter) to evaluate cell apoptosis and necrosis.

JOK cells [9] = experiment: JOK cell viability and apoptosis assays (LIVE/DEAD, Annexin V-FITC/PI)
Procedure: Cell Viability Assays. JOK cells were treated with test compounds (GSK-7975-A, SKF-93365 and 6αa) or solvent for 48 hours. JOK cells viability was then assessed using LIVE/DEAD cell viability assays kit (Abcam). Differentially labeled live and dead cells with fluorescent dyes are analyzed by flow cytometry.
Apoptosis Assay. Apoptosis of JOK cells were determined by Annexin V-FITC/PI staining (Biolegend) using flow cytometry. The percentage of annexin V-FITC and propidium iodide-[…] cells were assessed using Kaluza 1.3.

[10] = Lymphocyte, DMSO control 100%, read-out: Effect on amplitude of SOCE Peak
[11] = Lymphocyte, thapsigargin (Tg) peak, read-out: Effect on amplitude of Tg Peak

For `COc1ccc(CCOc2ccc(CCn3cnc4ccccc43)cc2)cc1` [6αa DAD 3-473, 1-[4-(4-Methoxyphenethoxy)phenethyl]-1H-benzo[d]imidazole], the PANC-1 proliferation (PANC-1 cells [1]) was “significantly reduces”, the cell cycle (JOK cells [2]) was “affects cell cycle” and the “transendothelial migration through HUVEC of JOK cells” value (JOK cells [3]) was “does significantly inhibit”. For the same compound, the “cytotoxicity in cancer PANC-1 cells” value (PANC-1 cells [4]) was “induces cytotoxicity”, the JOK proliferation (JOK cells [5]) was “significantly reduces” and the “amplitude of Ca2+ release from the endoplasmic stores” value (SOCE in JOK B cells) was “not found to be significantly affected”. The “amplitude of SOCE” value (SOCE in JOK B cells; 5 and 20 μM, compared to control, irrespective of incubation time (5, 15, 30 minutes, 1 hour)) was “significantly reduces”, the inhibition at 0.1 µM [6, 10] was 3% and the inhibition at 0.1 µM [6, 11] was -5%. The inhibition at 1 µM [6, 10] was -2%, the inhibition at 1 µM [6, 11] was -7% and the inhibition at 10 µM [6, 10] was 24%. It also gave an inhibition at 10 µM [6, 11] of 5%, an inhibition at 50 µM [6, 10] of 79% and an inhibition at 50 µM [6, 11] of 5%. The inhibition at 100 µM [6, 10] was 81%, the inhibition at 100 µM [6, 11] was 2% and the pIC50 ([6]; Lymphocyte, SOCE in PLP-B lymphocytes, average of three assays, ±0.5 μM) was 4.81. For the same compound, the “effectiveness as modulator that inhibits SOCE without inhibiting Ca2+ release from ER stores” value ([6]; comparison of the series tested) was “best candidate”, the “Effect on amplitude of SOCE peak” value ([7]; 5 μM) was −5% and the “Effect on amplitude of SOCE peak” value ([7]; 10 μM) was −35%. For the same compound, the “Effect on amplitude of SOCE peak” value ([7]; 50 μM) was −86%, the pIC50 ([7]; average of three assays, ±0.5 μM) was 4.60 and the “PANC-1 cell death by apoptosis” value (PANC-1 cells [8]) was “induces PANC-1 cells by apoptosis”. For the same compound, the “death of B cells” value (JOK cells [9]; JOK B cells (FIG. 7)) was “does not induce death”, the “apoptosis or necrosis of cells” value (JOK cells [9]; JOK B cells (FIG. 7), 5 or 20 μM, treated for 48 hours) was “do not induce apoptosis or necrosis” and the cell survival (JOK cells [9]; JOK cells) was “without significant reduction”.
